Patent publication US20240059688A1, “CONOLIDINE ANALOGUES AS SELECTIVE ACKR3 MODULATORS FOR THE TREATMENT OF CANCER” (Luxembourg Institute of Health (LIH), priority 2020, published 2024)

Experiments:
MOR = MOR (Homo sapiens, UniProt P35372); assay: MOR calcium mobilization agonist/antagonist screen (CHO-RD-HGA16 cells); assay type: cell-based; set-up: host or cells: CHO-RD-HGA16; settings: single concentration; for Emax: CHO-RD-HGA16, agonist screen, control agonist DAMGO
Description: Compounds were evaluated for kappa (KOR), mu (MOR), and delta (DOR) opioid receptor agonist and antagonist activity in three individual cell lines overexpressing Gαq16 (CHO-RD-HGA16, Molecular Devices) and the human kappa, mu, and delta opioid receptors, respectively. The day before the assay, cells were plated into 96-well black-walled assay plates at 30,000 cells/well in Ham's F12 supplemented with 10% fetal bovine serum, and 100 units of penicillin and streptomycin. The cells were incubated overnight at 37° C., 5% CO2. Prior to the assay, Calcium 5 dye (Molecular Devices) was reconstituted according to the manufacturer's instructions. The reconstituted dye was diluted 1:40 in pre-warmed (37° C.) assay buffer (1×HBSS, 20 mM HEPES, 2.5 mM probenecid, pH 7.4 at 37° C.). Growth medium was removed and the cells were gently washed with 100 μL of pre-warmed (37° C.) assay buffer. The cells were incubated for 45 minutes at 37° C., 5% CO2 in 200 μL of the diluted Calcium 5 dye. For the agonist screen, a single concentration of each test compound and receptor-specific controls (U69,593, DAMGO, and DPDPE for KOR, MOR, and DOR, respectively) were prepared at 10× the desired final concentration in 1% DMSO/assay buffer, aliquoted into a 96-well polystyrene plate, and warmed to 37° C. After the dye-loading incubation period, pretreatment solution was added to each well (25 μL of 9% DMSO/assay buffer) and, after 15 min, the plate was read with a FlexStation II (Molecular Devices). Calcium-mediated changes in fluorescence were monitored every 1.52 seconds over a 60 second time period, with the FlexStation II adding 50 μL of test compounds at the 19 second time point (excitation at 485 nm, detection at 525 nm). Peak kinetic reduction (SoftMax, Molecular Devices) relative fluorescence units (RFU) were used to calculate % control agonist Emax with the equation % Emax=(test compound RFU/control agonist RFU)×100. For the antagonist screens, the same procedure was followed except that the pretreatment solution consisted of the test compounds (prepared at […] the desired final concentration in 9% DMSO/assay buffer) and the FlexStation added the EC60 concentration (prepared at 10× the desired final concentration in 1% DMSO/assay buffer) of each respective control agonist. Peak RFU were used to calculate % control EC60 inhibition with the equation % inhibition=((EC60 RFU−test compound RFU)/EC60 RFU)×100. When IC50 determinations were made, the same antagonist screen procedure was followed except that cells were pretreated with 8-pt concentration-response curves of the test compounds. Peak RFU were plotted against the log of compound concentration using non-linear regression analysis to generate IC50 values (GraphPad Prism). Each test sample was analyzed in duplicate in two independent experiments.

CCR3 = target: T1, CCR3 (Homo sapiens, UniProt P51677); assay: NanoBiT β-arrestin-1 recruitment, receptor selectivity panel, CCR3; assay type: cell-based; settings: higher concentrations (3 μM, 10 μM); FIG. 3 sections B and C
T1 construct: expressed in transfected cells; host or cells: U87
T1 sequence (P51677 1-355): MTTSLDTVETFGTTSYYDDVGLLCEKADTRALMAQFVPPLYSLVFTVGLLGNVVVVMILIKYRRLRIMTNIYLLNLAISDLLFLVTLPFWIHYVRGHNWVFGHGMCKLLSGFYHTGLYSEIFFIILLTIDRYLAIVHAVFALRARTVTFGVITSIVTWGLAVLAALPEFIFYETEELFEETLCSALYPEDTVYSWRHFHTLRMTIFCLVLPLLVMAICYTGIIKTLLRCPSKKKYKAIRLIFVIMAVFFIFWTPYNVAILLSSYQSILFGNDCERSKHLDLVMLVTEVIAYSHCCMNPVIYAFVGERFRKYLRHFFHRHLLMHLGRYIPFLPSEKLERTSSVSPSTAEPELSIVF
Description: To further assess the selectivity profile of the compounds of the invention towards ACKR3, the ability to activate the 21 classical and 4 atypical chemokines receptors and related receptors was tested using the NanoBiT assay based β-arrestin-1 recruitment described previously. The 4 classical opioid receptors described above were also included in the experimental setup. The compounds WW-1 (conolidine) and WW-12 were tested at three different concentrations, 1 μM, 3 μM and 10 μM.
This possible off-target effect was further characterized by comparing the ability of the two molecules to activate receptors ACKR4, CX3CR1 and CCR3 with reference ligands for the receptors, namely CCL19, CX3CL1 and CCL13.
Ligand-induced β-arrestin recruitment to chemokine and opioid receptors was monitored by NanoLuc complementation assay (NanoBiT, Promega). […] Ligand-induced, β-arrestin to GPCRs was evaluated with a Mithras LB940 luminometer (Berthold Technologies, running on MicroWin 2010 5.19 software (Mikrotek Laborsysteme)) for 20 minutes.
For single dose screening experiments on all chemokine receptors(FIG. 3), the results are represented as percentage of signal monitored with 100 nM of one known agonist chemokine listed in the IUPHAR repository of chemokine receptor ligands which was added as positive control.

ACKR3 = ACKR3 (Homo sapiens, UniProt P25106); assay: Binding competition assay with CXCL12-AF647 on U87-ACKR3 cells; set-up: expressed in transfected cells; host or cells: U87-ACKR3 (ACKR3-negative U87 as control); settings: 5 nM CXCL12-AF647, FIG. 1 section D
ACKR3, sequence (P25106 whole entry): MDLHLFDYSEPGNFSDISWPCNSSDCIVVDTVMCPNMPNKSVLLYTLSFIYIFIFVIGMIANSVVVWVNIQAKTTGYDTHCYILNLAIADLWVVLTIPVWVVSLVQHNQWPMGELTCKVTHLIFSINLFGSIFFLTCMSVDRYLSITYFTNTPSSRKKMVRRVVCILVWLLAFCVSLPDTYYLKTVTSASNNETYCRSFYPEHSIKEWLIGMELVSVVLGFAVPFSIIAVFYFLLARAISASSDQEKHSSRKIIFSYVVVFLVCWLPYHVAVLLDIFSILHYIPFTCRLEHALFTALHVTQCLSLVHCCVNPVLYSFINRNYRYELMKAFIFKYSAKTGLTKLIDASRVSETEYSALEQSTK
Text: Dead cells were excluded using Zombie Green viability dye (BioLegend). […] Ligand binding was quantified by mean fluorescence intensity on a BD FACS Fortessa cytometer (BD Biosciences) using FACS Diva 8.01 (BD Biosciences).

MOR, sequence (P35372 whole entry): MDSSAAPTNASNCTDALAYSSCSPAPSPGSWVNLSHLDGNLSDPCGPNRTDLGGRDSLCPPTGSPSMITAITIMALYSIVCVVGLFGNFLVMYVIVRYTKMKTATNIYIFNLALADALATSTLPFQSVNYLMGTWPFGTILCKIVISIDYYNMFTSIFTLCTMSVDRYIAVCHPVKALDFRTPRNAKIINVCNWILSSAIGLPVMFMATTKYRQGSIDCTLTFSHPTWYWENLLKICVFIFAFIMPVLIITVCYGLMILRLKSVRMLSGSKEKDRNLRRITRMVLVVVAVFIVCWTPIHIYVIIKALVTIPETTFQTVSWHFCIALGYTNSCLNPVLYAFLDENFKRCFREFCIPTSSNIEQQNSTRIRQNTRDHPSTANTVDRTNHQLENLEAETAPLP

Emax (MOR) | MOR Calcium % DAMGO Inhibition (MOR; antagonist screen, vs EC60 of DAMGO) | activation of CCR3 (β-arrestin-1 recruitment) in receptor panel (CCR3) | IC50 (ACKR3) | SMILES
0% | 3% | weak activation | 39.9 µM | C/C=C1/CN2CC[C@H]1C(=O)c1[nH]c3ccccc3c1C2 [WW-1, (4E,5R)-4-ethylidene-1,4,5,7-tetrahydro-2,5-ethanoazocino[4,3-b]indol-6(3H)-one]
11% | – | weak activation | 2.7 µM | C/C=C1/CN(CCCCC)CC[C@H]1C(=O)c1cc2ccccc2[nH]1 [WW-12, [(3E,4R)-3-ethylidene-1-pentylpiperidin-4-yl](1H-indol-2-yl)methanone]
